Laboratory results taken from ChEMBL document CHEMBL3352074, “Novel ROCK inhibitors for the treatment of pulmonary arterial hypertension” (Bioorg Med Chem Lett, 2014).

Key:
[1] = Drug concentration in Balb/C mouse lung at 1 mg/kg, iv after 0.5 hrs; assay type: ADME, organism-based; design: dose 1 mg/kg, route intravenous; conditions: read-out: Drug uptake
[2] = Plasma concentration in Balb/C mouse at 1 mg/kg, it after 3 hrs; assay type: ADME, organism-based; design: dose 1 mg/kg, route endotracheal; conditions: inhaled or intranasal
[3] = Plasma concentration in Balb/C mouse at 1 mg/kg, iv after 3 hrs; assay type: ADME, organism-based; design: dose 1 mg/kg, route intravenous
[4] = AUC (0 to 6 hrs) in mouse plasma at 1 mg/kg, iv; assay type: ADME, organism-based; design: time < 6 hr, dose 1 mg/kg, route intravenous
[5] = Drug concentration in Balb/C mouse lung at 1 mg/kg, it after 3 hrs; assay type: ADME, organism-based; design: dose 1 mg/kg, route endotracheal; conditions: inhaled or intranasal, read-out: Drug uptake
[6] = Drug concentration in Balb/C mouse lung at 1 mg/kg, iv after 3 hrs; assay type: ADME, organism-based; design: dose 1 mg/kg, route intravenous; conditions: read-out: Drug uptake
[7] = Plasma concentration in Balb/C mouse at 1 mg/kg, iv after 0.5 hrs; assay type: ADME, organism-based; design: dose 1 mg/kg, route intravenous
[8] = AUC (0 to 6 hrs) in mouse lung at 1 mg/kg, iv; assay type: ADME, organism-based; design: time < 6 hr, dose 1 mg/kg, route intravenous
[9] = Drug concentration in Balb/C mouse lung at 1 mg/kg, it after 0.5 hrs; assay type: ADME, organism-based; design: dose 1 mg/kg, route endotracheal; conditions: inhaled or intranasal, read-out: Drug uptake
[10] = Plasma concentration in Balb/C mouse at 1 mg/kg, it after 0.5 hrs; assay type: ADME, organism-based; design: dose 1 mg/kg, route endotracheal; conditions: inhaled or intranasal
[11] = AUC (0 to 6 hrs) in mouse plasma at 1 mg/kg, it; assay type: ADME, organism-based; design: time < 6 hr, dose 1 mg/kg, route endotracheal; conditions: inhaled or intranasal
[12] = AUC (0 to 6 hrs) in mouse lung at 1 mg/kg, it; assay type: ADME, organism-based; design: time < 6 hr, dose 1 mg/kg, route endotracheal; conditions: inhaled or intranasal
[13] = Apparent permeability from apical to basolateral side across human Caco2 cells; assay type: ADME, cell-based; conditions: Caco-2

concentration at 0.5 h [1]	concentration at 3 h [2]	concentration at 3 h [3]	AUC(0-t) at 6 h [4]	concentration at 3 h [5]	concentration at 3 h [6]	concentration at 0.5 h [7]	AUC(0-t) at 6 h [8]	concentration at 0.5 h [9]	concentration at 0.5 h [10]	AUC(0-t) at 6 h [11]	AUC(0-t) at 6 h [12]	Papp A→B [13]	Compound
2000 nM	20 nM	10 nM	0.372 µM·h	1900 nM	200 nM	400 nM	3.01 µM·h	32500 nM	500 nM	0.302 µM·h	16 µM·h	–	c1cc2c(N3CCNCC3)nc(-c3ccc4[nH]ncc4c3)nc2cn1
–	–	–	0.642 µM·h	–	–	–	5.92 µM·h	–	–	0.665 µM·h	9.31 µM·h	5.65 ×10⁻⁶ cm/s	c1ccc2c(N3CCNCC3)nc(-c3ccc4[nH]ncc4c3)nc2c1
